Legend:
[1] = target: T1, XIAP BIR-3 (Homo sapiens, UniProt P98170); assay: Fluorescence polarization binding to XIAP BIR-3 with labeled peptide AbuRPF-K(5-Fam)-NH2; details: 40 nM BIR3, 5 nM labeled peptide, reported as ranges
T1 construct: 40 nM of the respective IAP BIR3
Method: (§1) The binding affinities of the compounds are reported as a KD value (μM). Briefly, various concentrations of test peptides were mixed with 5 nM of the fluorescently labeled peptide (i.e., a mutated N-terminal Smac peptide—AbuRPF-K(5-Fam)-NH2) and 40 nM of the respective IAP BIR3 for 15 min at RT in […] of 0.1M Potassium Phosphate buffer, pH 7.5 containing 100 mg/ml bovine g-globulin. Following incubation, the polarization values (mP) were measured on a Victor2V (available from PerkinElmer Life Sciences) using a 485 nm excitation filter and a 520 nm emission filter. The reported binding affinities (KD values) are supplied as ranges (A=<0.1 μM, B=0.1 μM to 1 μM, C=>1 μM to 10 μM, D=>10 μM).

[2] = target: T2, cIAP-1 BIR-3 (Homo sapiens, UniProt Q13490); assay: Fluorescence polarization binding to cIAP-1 BIR-3 with labeled peptide AbuRPF-K(5-Fam)-NH2; details: 40 nM BIR3, 5 nM labeled peptide, reported as ranges, read-out: KD (c-IAP-1 BIR3)
T2 construct: 40 nM of the respective IAP BIR3
T2 sequence (Q13490 253-363 limits assumed): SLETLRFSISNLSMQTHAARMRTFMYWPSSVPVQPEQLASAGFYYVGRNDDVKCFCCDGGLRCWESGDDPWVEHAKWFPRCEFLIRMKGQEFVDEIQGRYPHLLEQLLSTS
Method: as §1

[3] = tested on: ovarian cancer cell line, SK-OV-3; assay: SK-OV-3 cell growth inhibition (MTT, 72 hrs); type: cell-based; details: Homo sapiens, concentration giving 50% cell survival, reported as ranges
Method: Compounds of the invention also were tested for their ability to inhibit the growth of an ovarian cancer cell line, SK-OV-3. A known assay previously used for measuring cell growth (as described in Hansen, M. B., Nielsen, S. E., and Berg, K. (1989) J. Immunol. Methods 119, 203-210 and incorporated herein by reference in its entirety) was used. Briefly, SK-OV-3 cells are seeded in 96-well plates in McCoy's medium containing 10% fetal bovine serum albumin (5,000 per well) and incubated overnight at 37° C. The next day, test compounds are added at various concentrations (0.003-10 μM) and the plates are incubated at 37° C. for an additional 72 hrs. This incubation time was considered to be optimal for measuring inhibitory effects of the different compounds tested. 50 microliters of 5 mg/mL MTT reagent is added to each well and the plates are incubated at 37° C. for another three (3) hours. At the end of the three (3) hour incubation period, 50 microliters of DMSO is added to each well to dissolve cells and the optical density (OD) of the wells is measured with a microplate reader (Victor^2 1420, Wallac, Finland) at 535 nm. Cell survival (CS) was calculated using the following equation: CS=(OD treated well/mean OD control wells)×100%.
The CC50 (reported in the following tables), is defined as the drug concentration that results in 50% cell survival (CS), and is derived by calculating the point where the dose-response curve crosses the 50% CS point using GraphPad Prism. The reported CC50 values are supplied as ranges (A=<0.1 μM, B=0.1 μM to 1 μM, C=>1 μM to 10 μM, D=>10 μM).

T1 sequence (P98170 241-356 limits assumed): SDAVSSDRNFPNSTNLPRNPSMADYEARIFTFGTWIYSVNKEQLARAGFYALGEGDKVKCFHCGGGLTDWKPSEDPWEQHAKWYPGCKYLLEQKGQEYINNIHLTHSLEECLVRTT

| Compound | Kd [1] [nM] | Kd [2] [nM] | CC50 [3] [nM] |
| --- | --- | --- | --- |
| CN[C@@H](C)C(=O)N[C@H](C(=O)N1CC[C@@H]2[C@H]1[C@@H](COc1ccc(F)c(F)c1)CN2C(=O)CC(C)C)C(C)(C)C [Example 71, N-{1-[6-(3,4-Difluoro-phenoxymethyl)-4-(3-methyl-butyryl)-hexahydro-pyrrolo[3,2-b]pyrrole-1-carbonyl]-2,2-dimethyl-propyl}-2-methylamino propionamide] | < 100 | < 100 | < 100 |
| CNC(=O)N1C[C@H](Oc2ccc(F)c(F)c2)[C@@H]2[C@H]1CCN2C(=O)[C@@H](NC(=O)[C@H](C)NC)C(C)(C)C [Example 23, 3-(3,4-Difluoro-phenoxy)-4-[3,3-dimethyl-2-(2-methylamino-propionylamino)-butyryl]-hexahydro-pyrrolo[3,2-b]pyrrole-1-carboxylic acid methylamide] | < 100 | < 100 | < 100 |
| CN[C@@H](C)C(=O)N[C@H](C(=O)N1CC[C@@H]2[C@H]1[C@@H](Oc1ccc(F)cc1)CN2C(=O)NC(C)C)C1CCCCC1 [Example 28, 4-[2-Cyclohexyl-2-(2-methylamino-propionylamino)-acetyl]-3-(4-fluoro-phenoxy)-hexahydro-pyrrolo[3,2-b]pyrrole-1-carboxylic acid isopropylamide] | < 100 | < 100 | < 100 |
| CN[C@@H](C)C(=O)N[C@H](C(=O)N1CC[C@@H]2[C@H]1[C@@H](OC(=O)N(c1ccccc1)c1ccccc1)CN2C(=O)NC(C)C)C(C)(C)C [Example 48, Diphenyl-carbamic acid 4-[3,3-dimethyl-2-(2-methylamino-propionylamino)-butyryl]-1-isopropylcarbamoyl-octahydro-pyrrolo[3,2-b]pyrrol-3-yl ester] | 100 to 1000 | < 100 | 100 to 1000 |
| CN[C@@H](C)C(=O)N[C@H](C(=O)N1CC[C@H]2NC[C@H](Oc3cccc4ccccc34)[C@H]21)C1CCCCC1 [Example 8, N-{1-Cyclohexyl-2-[6-(naphthalen-1-yloxy)-hexahydro-pyrrolo[3,2-b]pyrrol-1-yl]-2-oxo-ethyl}-2-methylamino-propionamide] | < 100 | < 100 | 100 to 1000 |
| CNC(=O)N1C[C@H](COc2ccc(F)c(F)c2)[C@@H]2[C@H]1CCN2C(=O)[C@@H](NC(=O)[C@H](C)NC)C(C)(C)C [Example 62, 3-(3,4-Difluoro-phenoxymethyl)-4-[3,3-dimethyl-2-(2-methylamino-propionylamino)-butyryl]-hexahydro-pyrrolo[3,2-b]pyrrole-1-carboxylic acid methylamide] | < 100 | < 100 | < 100 |
| CN[C@@H](C)C(=O)N[C@H](C(=O)N1CC[C@@H]2[C@H]1[C@@H](COc1ccc(F)c(F)c1)CN2C(=O)N(C)C)C(C)(C)C [Example 68, 3-(3,4-Difluoro-phenoxymethyl)-4-[3.3-dimethyl-2-(2-methylaminopropionylamino)-butyryl]-hexahydro-pyrrolo[3,2-b]pyrrole-1-carboxylic acid dimethylamide] | < 100 | < 100 | < 100 |
| CN[C@@H](C)C(=O)N[C@H](C(=O)N1CC[C@@H]2[C@H]1[C@@H](OC(=O)N1CCCC1)CN2C(=O)NC(C)C)C(C)(C)C [Example 58, Pyrrolidine-1-carboxylic acid 4-[3,3-dimethyl-2-(2-methylamino-propionylamino)-butyryl]-1-isopropylcarbamoyl-octahydro-pyrrolo[3,2-b]pyrrol-3-yl ester] | 1000 to 10000 | 100 to 1000 | 1000 to 10000 |
| CN[C@@H](C)C(=O)N[C@H](C(=O)N1CC[C@@H]2[C@H]1[C@@H](OC(=O)Nc1ccccc1)CN2C(=O)NC(C)C)C(C)(C)C [Example 47, Phenyl-carbamic acid 4-[3,3-dimethyl-2-(2-methylamino-propionylamino)-butyryl]-1-isopropylcarbamoyl-octahydro-pyrrolo[3,2-b]pyrrol-3-yl ester] | 100 to 1000 | < 100 | < 100 |
| CCNC(=O)O[C@H]1CN(C(=O)NC(C)C)[C@@H]2CCN(C(=O)[C@@H](NC(=O)[C@H](C)NC)C(C)(C)C)[C@H]12 [Example 52, Ethyl-carbamic acid 4-[3,3-dimethyl-2-(2-methylamino-propionylamino)-butyryl]-1-isopropylcarbamoyl-octahydro-pyrrolo[3,2-b]pyrrol-3-yl ester] | 1000 to 10000 | < 100 | 1000 to 10000 |
| CN[C@@H](C)C(=O)N[C@H](C(=O)N1CC[C@@H]2[C@H]1[C@@H](OC(=O)N1CCCCC1)CN2C(=O)NC(C)C)C(C)(C)C [Example 59, Piperidine-1-carboxylic acid 4-[3,3-dimethyl-2-(2-methylamino-propionylamino)-butyryl]-1-isopropylcarbamoyl-octahydro-pyrrolo[3,2-b]pyrrol-3-yl ester] | 1000 to 10000 | < 100 | 1000 to 10000 |
| CN[C@@H](C)C(=O)N[C@H](C(=O)N1CC[C@@H]2[C@H]1[C@@H](Oc1ccc(F)c(F)c1)CN2C1CCCC1)C(C)(C)C [Example 17, N-{1-[4-Cyclopentyl-6-(3,4-difluoro-phenoxy)-hexahydro-pyrrolo[3,2-b]pyrrole-1-carbonyl]-2,2-dimethyl-propyl}-2-methylamino-propionamide] | 100 to 1000 | < 100 | < 100 |
| CN[C@@H](C)C(=O)N[C@H](C(=O)N1CC[C@@H]2[C@H]1[C@@H](COc1ccc(F)c(F)c1)CN2C(=O)C(C)=O)C(C)(C)C [Example 66, N-{1-[6-(3,4-Difluoro-phenoxymethyl)-4-(2-oxo-propionyl)-hexahydro-pyrrolo[3,2-b]pyrrole-1-carbonyl]-2,2-dimethyl-propyl}-2-methylamino propionamide] | < 100 | < 100 | < 100 |
| CN[C@@H](C)C(=O)N[C@H](C(=O)N1CC[C@@H]2[C@H]1[C@@H](OC(=O)Nc1ccc3ccccc3c1)CN2C(=O)NC(C)C)C(C)(C)C [Example 51, Naphthalen-2-yl-carbamic acid 4-[3,3-dimethyl-2-(2-methylamino-propionylamino)-butyryl]-1-isopropylcarbamoyl-octahydro-pyrrolo[3,2-b]pyrrol-3-yl ester] | 100 to 1000 | < 100 | 1000 to 10000 |
| CN[C@@H](C)C(=O)N[C@H](C(=O)N1CC[C@@H]2[C@H]1[C@@H](Oc1ccc(F)cc1)CN2S(C)(=O)=O)C(C)C [Example 9, N-{1-[6-(4-Fluoro-phenoxy)-4-methanesulfonyl-hexahydro-pyrrolo[3,2-b]pyrrole-1-carbonyl]-2-methyl-propyl}-2-methylamino-propionamide] | < 100 | < 100 | < 100 |
| CN[C@@H](C)C(=O)N[C@H](C(=O)N1CC[C@@H]2[C@H]1[C@@H](COc1ccc(F)c(F)c1)CN2C(=O)C1CC1)C(C)(C)C [Example 69, N-{1-[4-Cyclopropanecarbonyl-6-(3,4-difluoro-phenoxymethyl)-hexahydro-pyrrolo[3,2-b]pyrrole-1-carbonyl]-2,2-dimethyl-propyl}-2-methylamino propionamide] | 100 to 1000 | < 100 | < 100 |
